Measured values reported in article PMC11580984 (bioRxiv, 2024).
Numbered stars: 1 amine (or outer) side, 2 acyl side, 3 side chain; on linkers, the order of the positions; unused ones are H or OH. Bridge positions count the residues as written; N and C are the ends. Square brackets hold non-standard residues; d marks the D form. Peptide text beside a SMILES is read from it. X1 = O=S(=O)(F)Oc1cc(C[*:1])cc(C[*:2])c1; Pra = C#CC[C@H](N)C(=O)O

Target: full-length spike Omicron BA2 variant (Severe acute respiratory syndrome coronavirus 2, UniProt P0DTC2, A27S/A892P/A899P/A942P/D405N/D614G/D796Y/DEL24-26/E484A/F817P/G142D/G339D/H655Y/K417N/K986P/N440K/N501Y/N679K/N764K/N969K/P681H/Q493R/Q498R/Q954H/R408S/R683A/R685A/S371F/S373P/S375F/S477N/T19I/T376A/T478K/V213G/V987P/Y505H)
Type: binding, SARS-CoV-2

SMILES | spike labeling
C#CC[C@H](N)C(=O)N[C@@H](CCC(N)=O)C(=O)N[C@H]1CSCc2cc(cc(OS(=O)(=O)F)c2)CSC[C@@H](C(=O)NCC(N)=O)NC(=O)[C@H](CC(C)C)NC(=O)[C@H](C(C)C)NC(=O)[C@H](Cc2ccc(O)cc2)NC(=O)[C@H](CC(C)C)NC(=O)[C@H](CC(=O)O)NC(=O)[C@H](CCC(N)=O)NC(=O)[C@H](C(C)C)NC1=O [CP_SW3A] (H-[Pra]QCVQDLYVLCG-NH2; linker 3-11 via X1) | highest gel labeling intensity
C#CC[C@H](N)C(=O)N[C@@H](CCC(N)=O)C(=O)N[C@H]1CSCc2cc(cc(OS(=O)(=O)F)c2)CSC[C@@H](C(=O)NCC(N)=O)NC(=O)[C@H](C(C)C)NC(=O)[C@H](CCC(N)=O)NC(=O)[C@H](CC(=O)O)NC(=O)[C@H](CC(C)C)NC(=O)[C@H](Cc2ccc(O)cc2)NC(=O)[C@H](C(C)C)NC(=O)[C@H](CC(C)C)NC1=O [CP_SW3A_S2] (H-[Pra]QCLVYLDQVCG-NH2; linker 3-11 via X1) | dramatically reduced labeling
C#CC[C@H](NC(=O)[C@H](CCC(N)=O)NC(=O)[C@@H]1CSCc2cc(cc(OS(=O)(=O)F)c2)CSC[C@H](NC(=O)CN)C(=O)N[C@@H](CC(C)C)C(=O)N[C@@H](C(C)C)C(=O)N[C@@H](Cc2ccc(O)cc2)C(=O)N[C@@H](CC(C)C)C(=O)N[C@@H](CC(=O)O)C(=O)N[C@@H](CCC(N)=O)C(=O)N[C@@H](C(C)C)C(=O)N1)C(N)=O [CP_SW3A_S1] (H-GCLVYLDQVCQ[Pra]-NH2; linker 2-10 via X1) | dramatically reduced labeling
